Legend:
[1] = biological target: T1, ULK1 kinase (Homo sapiens, UniProt O75385, E37A/K38A); assay: Biochemical assay for ULK1.3 (coupled pyruvate kinase/lactate dehydrogenase assay); details: 0.1 nM ULK1 (residues 1-283), peptide substrate, 1 mM ATP
T1 construct: (residues 1-283; ID NO: 2); purchased Beryllium
T1 sequence (O75385 1-283 E37A/K38A): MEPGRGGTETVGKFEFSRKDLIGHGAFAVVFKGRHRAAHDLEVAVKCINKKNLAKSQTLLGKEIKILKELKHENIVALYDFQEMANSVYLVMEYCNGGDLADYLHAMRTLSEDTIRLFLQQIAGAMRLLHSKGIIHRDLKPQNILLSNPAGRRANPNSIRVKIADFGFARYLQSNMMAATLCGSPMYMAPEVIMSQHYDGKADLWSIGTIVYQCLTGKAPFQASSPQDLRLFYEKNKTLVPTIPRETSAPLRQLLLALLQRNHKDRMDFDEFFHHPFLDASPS
Protocol: Activity of ULK1 kinase was determined spectroscopically using a coupled pyruvate kinase/lactate dehydrogenase assay that continuously monitors the ATP hydrolysis-dependent oxidation of NADH (e.g., Schindler et al. Science (2000) 289: 1938-1942). Assays were conducted in 384-well plates (100 uL final volume) using 0.1 nM ULK1 (from Beryllium), 0.075 mM peptide substrate (YANWLAASIYLDGKKK (SEQ ID NO: 5)), 1.5 units pyruvate kinase, 2.1 units lactate dehydrogenase, 1 mM phosphoenol pyruvate, 0.28 mM NADH and 1 mM ATP in assay buffer (100 mM Tris, pH 7.5, 15 mM MgCl2, 0.5 mM DTT, 0.004% (w/v) BSA, and 0.004% Triton X-100). Inhibition of ULK1 was measured by adding serial diluted test compound (final assay concentration of 1% DMSO). A decrease in absorption at 340 nm was monitored continuously for 6 hours at 30° C. on a multi-mode microplate reader (BioTek). The reaction rate was calculated using the 2-3 h time frame. The reaction rate at each concentration of compound was converted to percent inhibition using controls (i.e. reaction with no test compound and reaction with a known inhibitor) and IC50 values were calculated using software routines in Prism (GraphPad software).

[2] = biological target: T2, LRRK2 kinase (Homo sapiens, UniProt Q5S007); assay: Biochemical assay for LRRK2 (coupled pyruvate kinase/lactate dehydrogenase assay); details: 26.4 nM LRRK2 (residues 970-2528), peptide substrate, 1 mM ATP
T2 construct: (residues 970-2528; ID NO; 4); purchased Thermo Fisher
T2 sequence (Q5S007 with tags, fused parts or gaps): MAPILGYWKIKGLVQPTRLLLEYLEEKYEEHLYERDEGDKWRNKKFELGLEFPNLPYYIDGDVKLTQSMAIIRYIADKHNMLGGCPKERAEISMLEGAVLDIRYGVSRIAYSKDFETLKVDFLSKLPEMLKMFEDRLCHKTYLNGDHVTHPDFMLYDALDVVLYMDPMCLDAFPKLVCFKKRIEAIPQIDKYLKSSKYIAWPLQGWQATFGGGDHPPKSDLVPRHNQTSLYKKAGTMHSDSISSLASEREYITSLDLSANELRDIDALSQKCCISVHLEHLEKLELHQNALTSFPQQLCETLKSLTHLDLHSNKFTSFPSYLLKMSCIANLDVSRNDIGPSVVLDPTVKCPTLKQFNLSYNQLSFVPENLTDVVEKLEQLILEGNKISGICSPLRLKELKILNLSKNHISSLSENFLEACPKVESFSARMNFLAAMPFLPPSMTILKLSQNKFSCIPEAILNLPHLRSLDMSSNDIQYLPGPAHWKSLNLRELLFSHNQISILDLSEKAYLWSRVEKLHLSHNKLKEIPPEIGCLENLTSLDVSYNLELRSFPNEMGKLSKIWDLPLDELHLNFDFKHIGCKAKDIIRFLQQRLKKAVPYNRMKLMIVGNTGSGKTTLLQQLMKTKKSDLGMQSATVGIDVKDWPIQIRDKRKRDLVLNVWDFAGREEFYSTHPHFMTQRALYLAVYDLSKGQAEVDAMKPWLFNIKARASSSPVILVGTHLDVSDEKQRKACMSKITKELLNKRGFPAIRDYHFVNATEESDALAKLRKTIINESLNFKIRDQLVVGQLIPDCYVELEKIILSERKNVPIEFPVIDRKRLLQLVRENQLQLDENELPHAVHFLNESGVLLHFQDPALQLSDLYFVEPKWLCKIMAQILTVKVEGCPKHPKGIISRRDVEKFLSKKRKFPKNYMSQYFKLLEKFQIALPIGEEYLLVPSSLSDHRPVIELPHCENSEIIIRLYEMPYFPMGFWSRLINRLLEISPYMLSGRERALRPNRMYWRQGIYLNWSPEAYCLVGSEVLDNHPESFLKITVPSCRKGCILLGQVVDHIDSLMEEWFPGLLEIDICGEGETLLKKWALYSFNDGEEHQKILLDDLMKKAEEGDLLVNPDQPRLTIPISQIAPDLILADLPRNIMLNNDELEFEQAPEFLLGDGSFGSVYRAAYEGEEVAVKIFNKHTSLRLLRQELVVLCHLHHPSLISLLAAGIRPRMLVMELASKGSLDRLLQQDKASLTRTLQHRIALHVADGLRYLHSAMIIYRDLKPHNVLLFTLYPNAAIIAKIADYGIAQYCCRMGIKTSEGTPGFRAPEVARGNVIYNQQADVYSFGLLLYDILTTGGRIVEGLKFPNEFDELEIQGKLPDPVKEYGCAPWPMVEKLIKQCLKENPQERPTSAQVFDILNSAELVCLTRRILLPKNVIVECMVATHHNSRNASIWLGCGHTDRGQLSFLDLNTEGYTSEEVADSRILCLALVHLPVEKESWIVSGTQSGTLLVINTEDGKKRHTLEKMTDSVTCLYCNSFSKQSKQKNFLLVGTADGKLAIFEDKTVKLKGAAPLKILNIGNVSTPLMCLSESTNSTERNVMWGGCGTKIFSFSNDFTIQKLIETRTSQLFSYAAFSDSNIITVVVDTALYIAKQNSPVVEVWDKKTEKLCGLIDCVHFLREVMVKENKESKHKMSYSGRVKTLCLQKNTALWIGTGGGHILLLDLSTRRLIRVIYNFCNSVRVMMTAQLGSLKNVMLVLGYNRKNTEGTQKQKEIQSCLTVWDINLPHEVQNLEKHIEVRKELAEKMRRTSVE
Protocol: Activity of LRRK2 kinase was determined spectroscopically using a coupled pyruvate kinase/lactate dehydrogenase assay that continuously monitors the ATP hydrolysis-dependent oxidation of NADH (e.g., Schindler et al. Science (2000) 289: 1938-1942). Assays were conducted in 384-well plates (100 uL final volume) using 26.4 nM LRRK2 (Thermo Fisher), 0.1 mM peptide substrate (RLGRDKYKTLRQIRQ (SEQ ID NO: 6)), 1.5 units pyruvate kinase, 2.1 units lactate dehydrogenase, 1 mM phosphoenol pyruvate, 0.28 mM NADH and 1 mM ATP in assay buffer (100 mM Tris, pH 7.5, 15 mM MgCl2, 0.5 mM DTT, 0.004% (w/v) BSA, and 0.004% Triton X-100). Inhibition of LRRK2 was measured by adding serial diluted test compound (final assay concentration of 1% DMSO). A decrease in absorption at 340 nm was monitored continuously for 6 hours at 30° C. on a multi-mode microplate reader (BioTek). The reaction rate was calculated using the 2-3 h time frame. The reaction rate at each concentration of compound was converted to percent inhibition using controls (i.e. reaction with no test compound and reaction with a known inhibitor) and IC50 values were calculated using software routines in Prism (GraphPad software).

[3] = biological target: T3, ULK2 kinase (Homo sapiens, UniProt Q8IYT8); assay: Biochemical assay for ULK2 (coupled pyruvate kinase/lactate dehydrogenase assay); details: 9.7 nM ULK2 (residues 1-306), myelin basic protein substrate, 1 mM ATP; read-out: ULK2.2
T3 construct: purchased Eurofins 14-772
T3 sequence (Q8IYT8 with tags, fused parts or gaps): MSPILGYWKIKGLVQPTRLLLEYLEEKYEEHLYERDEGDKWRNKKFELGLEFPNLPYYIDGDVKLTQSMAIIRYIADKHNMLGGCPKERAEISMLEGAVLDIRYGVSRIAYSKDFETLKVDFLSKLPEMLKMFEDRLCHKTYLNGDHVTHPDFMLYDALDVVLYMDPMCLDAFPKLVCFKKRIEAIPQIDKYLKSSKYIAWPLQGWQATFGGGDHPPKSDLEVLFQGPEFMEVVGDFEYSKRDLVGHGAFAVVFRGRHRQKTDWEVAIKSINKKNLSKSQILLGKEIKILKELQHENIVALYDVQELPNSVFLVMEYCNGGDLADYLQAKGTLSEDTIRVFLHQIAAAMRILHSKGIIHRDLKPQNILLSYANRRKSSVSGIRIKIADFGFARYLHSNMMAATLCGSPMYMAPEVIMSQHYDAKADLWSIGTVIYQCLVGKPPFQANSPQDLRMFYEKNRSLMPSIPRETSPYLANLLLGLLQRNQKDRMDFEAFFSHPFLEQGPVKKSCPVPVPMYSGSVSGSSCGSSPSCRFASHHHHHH
Protocol: (§1) Activity of ULK2 kinase was determined spectroscopically using a coupled pyruvate kinase/lactate dehydrogenase assay that continuously monitors the ATP hydrolysis-dependent oxidation of NADH (e.g., Schindler et al. Science (2000) 289: 1938-1942). Assays were conducted in 384-well plates (100 uL final volume) using 9.7 nM ULK2 (Eurofins CAT #14-772), 0.25 mg/mL myelin basic protein, 1.5 units pyruvate kinase, 2.1 units lactate dehydrogenase, 1 mM phosphoenol pyruvate, 0.28 mM NADH and 1 mM ATP in assay buffer (100 mM Tris, pH 7.5, 15 mM MgCl2, 0.5 mM DTT, 0.1% octyl-glucoside, 0.002% (w/v) BSA, and 0.002% Triton X-100). Inhibition of ULK2 was measured by adding serial diluted test compound (final assay concentration of 1% DMSO). A decrease in absorption at 340 nm was monitored continuously for 6 hours at 30° C. on a multi-mode microplate reader (BioTek). The reaction rate was calculated using the 2-3 h time frame. The reaction rate at each concentration of compound was converted to percent inhibition using controls (i.e. reaction with no test compound and reaction with a known inhibitor) and IC50 values were calculated by fitting a four-parameter sigmoidal curve to the data using Prism (GraphPad software).

[4] = tested on: ULK kinase substrate ATG13 (phospho-Serine 318 ATG13) in A549 cells; assay: pATG13 ELISA in mutant KRas A549 cells in combination with trametinib; type: cell-based; details: A549 (KRAS mutant) human lung cancer cells, with 250 nM trametinib, overnight
Protocol: (§2) A549 (KRAS mutant) human lung cancer cells (6,000 cells/well) were added to a 384-well tissue-culture treated plate in 50 μL of pre-warmed DMEM medium supplemented with 10% characterized fetal bovine serum (Invitrogen, Carlsbad, Calif.), 100 units/mL penicillin G, and 100 μg/mL streptomycin and allowed to grow overnight at 37° C., 5% CO2, and 95% humidity. The following day, 10 μL of media containing trametinib or DMSO as a control was added to wells. The final concentration of trametinib in wells was 250 nM. A dose response of a test compound (0.6 μL per well) was added. DMSO (0.6 μL) was added to control wells. The plate was briefly shaken to mix wells and then incubated at 37° C. overnight. The next day, the media was aspirated and cells were washed with Dulbecco's Phosphate Buffered Saline (Gibco). Cells were lysed using MPER lysis buffer (Pierce, Rockford, Ill.) containing Halt Phosphatase and Protease Inhibitors (Pierce, Rockford, Ill.) and Phosphatase inhibitor cocktail 2 (Sigma, St. Louis, Mo.) at 4° C. for 10 minutes with shaking.
(§3) Cellular levels of phospho-Serine 318 ATG13 (pATG13) were measured via an ELISA method. Total ATG13 Antibody (Cell Signaling Cat #13273) was used to coat the wells. The plate was incubated at 4° C. overnight and washed with ELISA wash buffer (Biolegend Cat #421601). The wells were then blocked with assay diluent (Biolegend Cat #421203) for 1 hour at room temperature. Plate wells were washed with ELISA wash buffer. Cell lysate was added to wells and incubated at room temperature for 2 hours. Plate wells were washed with ELISA wash buffer. Biotinylated pS318-ATG13 antibody (Rockland Immunochemicals Cat #600-401-C49) was diluted in assay diluent and added to each well and incubated at room temperature for 1 hour. Plate wells were washed with ELISA wash buffer. Streptavidin linked to horseradish peroxidase (Thermo Fisher Cat #21140) was diluted in assay diluent and added to each well and incubated at room temperature for 1 hour. Plate wells were washed with ELISA wash buffer. High sensitivity TMB substrate (Biolegend Cat #421101) was added to each well and incubated at room temperature for 20 minutes. The reaction was stopped with 2N Sulfuric Acid. The plate was analyzed at on a plate reader measuring absorbance at 450 nm and 540 nm (background). Signal was calculated by first subtracting the background absorbance at 540 nm from the absorbance at 450 nm for each well. Next, the background corrected absorbance at 450 nm from blank wells was subtracted from test wells. Data was compared to control wells to determine % ATG13 phosphorylation. GraphPad Prism was used to calculate IC50 values.

[5] = tested on: ULK kinase substrate ATG13 (phospho-Serine 318 ATG13) in MiaPaCa-2 cells; assay: pATG13 ELISA in mutant KRas MiaPaCa-2 cells in combination with trametinib; type: cell-based; details: MiaPaCa-2 human pancreatic cancer cells, with 250 nM trametinib, overnight
Protocol: as §2, with “MiaPaCa-2” for “A549 (KRAS mutant)”, “pancreatic” for “lung”, “(10000” for “(6,000”, “G,” for “G, and”, “streptomycin, and 2.5% Horse Serum” for “streptomycin”
as §3

[6] = biological target: T4, ULK1 kinase (Homo sapiens, UniProt O75385); assay: Biochemical assay for ULK1.2 (coupled pyruvate kinase/lactate dehydrogenase assay); details: 19 nM ULK1 (residues 1-314), myelin basic protein substrate, 1 mM ATP
T4 construct: purchased Eurofins 14-959
T4 sequence (O75385 with tags, fused parts or gaps): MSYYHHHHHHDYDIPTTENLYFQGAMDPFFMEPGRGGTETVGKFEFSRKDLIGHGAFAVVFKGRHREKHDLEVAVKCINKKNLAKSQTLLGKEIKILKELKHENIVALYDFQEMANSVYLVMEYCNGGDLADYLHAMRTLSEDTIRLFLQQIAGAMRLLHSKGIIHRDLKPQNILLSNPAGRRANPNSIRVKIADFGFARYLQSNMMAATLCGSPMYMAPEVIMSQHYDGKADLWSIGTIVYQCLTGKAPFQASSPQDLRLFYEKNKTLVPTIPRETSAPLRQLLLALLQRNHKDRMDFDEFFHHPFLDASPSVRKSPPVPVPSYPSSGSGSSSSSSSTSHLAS
Protocol: as §1, with “ULK1” for “ULK2”, “19” for “9.7”, “#14-959),” for “#14-772),”

Row | SMILES | IC50 [1] [nM] | IC50 [2] [nM] | IC50 [3] [nM] | IC50 [4] [nM] | IC50 [5] [nM] | IC50 [6] [nM]
1 | Cc1nn(C(C)(C)C(N)=O)cc1Nc1ncc(C(F)(F)F)c(NCCCNC(=O)C2CCC2)n1 [Example 26, N-(3-((2-((1-(1-amino-2-methyl-1-oxopropan-2-yl)-3-methyl-1H-pyrazol-4-yl)amino)-5-(trifluoromethyl)pyrimidin-4-yl)amino)propyl)cyclobutanecarboxamide] | 500 to 20000 | 1 to 100 | 500 to 20000 |  |  | 
2 | CC(C)Oc1cc(N2CCN(C)CC2)ccc1Nc1ncc(Cl)c(NCCCNC(=O)C2CCC2)n1 [Example 10] | 500 to 20000 | 100 to 300 | 500 to 20000 |  |  | 
3 | Cc1nn(C(C)(C)C#N)cc1Nc1ncc(C(F)(F)F)c(NCCCNC(=O)C2CCC2)n1 [Example 30, N-(3-((2-((1-(2-cyanopropan-2-yl)-3-methyl-1H-pyrazol-4-yl)amino)-5-(trifluoromethyl)pyrimidin-4-yl)amino)propyl)cyclobutanecarboxamide] | 100 to 500 | 1 to 100 | 500 to 20000 |  |  | 

Results, then the molecule that gave them:

Row | IC50 [1] [nM] | IC50 [2] [nM] | IC50 [3] [nM] | IC50 [4] [nM] | IC50 [5] [nM] | IC50 [6] [nM] | SMILES
4 | 25 to 100 | 100 to 300 | 100 to 500 |  |  |  | CN1CCN(c2ccc(Nc3ncc(Br)c(NCCCNC(=O)C4CCC4)n3)c(C3CC3)c2)CC1 [Example 9]
5 |  |  | 25 to 100 | 100 to 300 | 10 to 100 | 1 to 25 | CCc1cc(N2CCN(C)CC2)ccc1Nc1ncc(C(F)(F)F)c(NCCCNC(=O)C2CCC2)n1 [Example 1, N-(3-((2-((2-ethyl-4-(4-methylpiperazin-1-yl)phenyl)amino)-5-(trifluoromethyl)pyrimidin-4-yl)amino)propyl)cyclobutanecarboxamide]
6 | 500 to 20000 | 600 to 20000 | 500 to 20000 |  |  |  | CCc1cc(N2CCN(C)CC2)ccc1Nc1ncc(C2CC2)c(NCCCNC(=O)C2CCC2)n1 [Example 19]
7 | 25 to 100 | 100 to 300 | 100 to 500 |  |  |  | CCc1cc(N2CCN(C)CC2)ccc1Nc1ncc(Br)c(NCCCNC(=O)C2CCC2)n1 [Example 7]
